Where “and” joins values, the source holds several entries; their conditions need not be identical. Equal entries are not always repeated. Entries after “also recorded” stand apart in the source; their conditions may differ. Structures can show the parent of a compound that is named as a salt.
Key:
Colo205 tumors = assay: Real-time PCR (TaqMan) of RNA from Colo205 xenograft tumors; type: in vivo, human
Experimental: Real-Time PCR (TaqMan®)'The source of RNA used for RT-PCR analysis was the same as that used for the preparation of probes for oligonucleotide array analysis. Quantitative Reverse Transcriptase-PCR (RT-PCR) was performed using TaqMan® assay reagents from Perkin-Elmer, Applied Biosystems, 50 μl RT-PCR reactions consisted of 5 μl 10× TaqMan Buffer A, 300 μM of each dNTP, 5 mM MgCl2, 10 unites of RNase inhibitor, 12.5 units of MuLV Reverse Transcriptase, 1.25 units of AmpliTaq Gold DNA Polymerase, 200 nM probe, 500 nM primers and 100 ng RNA. Reaction conditions consisted of reverse transcription at 48° C. for 10 minutes, denaturation at 95° C. for 10 minutes, and 40 thermal cycles of 95° C. for 25 seconds, and 65° C. for 1 min. Reaction products were analyzed on 4-agarose gels (Invitrogen). Fold-induction for each gene of interest was determined using the ΔΔCt method and the result is presented relative to both GAPDH and actin in each figure. The following specific probes and primer sets were used for MFGE8 (Acc#U58516): forward primer: […] (SEQ ID NO: 1), reverse primer: […] (SEQ ID NO: 2), and probe: […] (SEQ ID NO: 3); GPC1 (Acc#X54232): forward primer: […] (SEQ ID NO: 4), reverse primer: […] (SEQ ID NO: 5), and probe: […] (SEQ ID NO:6); AQP3 (Acc# N74607): forward primer: […] (SEQ ID NO: 7), reverse primer: […] (SEQ ID NO: 8), and probe, […] […]

mouse colon = assay: Oligonucleotide array analysis (Affymetrix Mu74Av2) of normal colon/intestine of tumor-bearing mice treated with CPT-11 or saline; type: in vivo
Colo205 and DLD-1 cells = Colo205 and DLD-1 cells treated in vitro with CPT-11, expression of genes of Table I; type: cell-based, human; details: data not shown
Excerpt: Cell lines-Colo205, HCT116, HT29 (ATCC Nos. CCL222, CCL221, CCL247, HTB38, respectively) are human colorectal adenocarcinoma cell lines. 293 is a human immortalized embryonic kidney cell line (ATCC CRL573). PC-3 is a human prostate adenocarcinoma cell line (ATCC CRL1435) and HT1080 is a human fibrosarcoma cell line (ATCC CCL-121). PC-3 stable cell lines were generated by transfection (Effectene, Qiagen) with a CMV-driven vector encoding either an NH2-terminal gD epitope-tagged form of LY6D/[…] or an empty vector and selected in 400 μg/ml G418 (Geneticin, Life Technologies, Inc.). Growth conditions were according to American Type Culture Collection (ATCC, Manassas, Va.) guidelines. For all cell lines, CPT11 treatments were done in 10 cm dishes for the indicated timepoints. Cells were harvested and RNA was prepared using RNeasy kit (Qiagen, Hilden, Germany). TaqMan® real-time quantitative PCR analysis was performed as described below.

DLD-1 tumors = assay: Real-time PCR (TaqMan) of RNA from DLD-1 xenograft tumors, parallel to Colo205; type: in vivo, human
Experimental: (§1) Real-Time PCR (TaqMan®)'The source of RNA used for RT-PCR analysis was the same as that used for the preparation of probes for oligonucleotide array analysis. Quantitative Reverse Transcriptase-PCR (RT-PCR) was performed using TaqMan® assay reagents from Perkin-Elmer, Applied Biosystems, 50 μl RT-PCR reactions consisted of 5 μl 10× TaqMan Buffer A, 300 μM of each dNTP, 5 mM MgCl2, 10 unites of RNase inhibitor, 12.5 units of MuLV Reverse Transcriptase, 1.25 units of AmpliTaq Gold DNA Polymerase, 200 nM probe, 500 nM primers and 100 ng RNA. Reaction conditions consisted of reverse transcription at 48° C. for 10 minutes, denaturation at 95° C. for 10 minutes, and 40 thermal cycles of 95° C. for 25 seconds, and 65° C. for 1 min. Reaction products were analyzed on 4-agarose gels (Invitrogen). Fold-induction for each gene of interest was determined using the ΔΔCt method and the result is presented relative to both GAPDH and actin in each figure. The following specific probes and primer sets were used for MFGE8 (Acc#U58516): forward primer: […] (SEQ ID NO: 1), reverse primer: […] (SEQ ID NO: 2), and probe: […] (SEQ ID NO: 3); GPC1 (Acc#X54232): forward primer: […] (SEQ ID NO: 4), reverse primer: […] (SEQ ID NO: 5), and probe: […] (SEQ ID NO:6); AQP3 (Acc# N74607): forward primer: […] (SEQ ID NO: 7), reverse primer: […] (SEQ ID NO: 8), and probe, […] (SEQ ID NO: 9); CDH17 (Acc#83228): forward primer: […] (SEQ ID NO: 10), reverse primer: […] (SEQ ID NO: 11), and probe: […] (SEQ ID NO: 12); Ly6D/E48 (Acc#Y12642): forward primer: […] (SEQ ID NO: 13); reverse primer: […] (SEQ ID NO: 14); and probe: […] (SEQ ID NO: 15); and Ly6E/SCA-2 (Acc# U66711): forward primer: […] (SEQ ID NO: 16); reverse primer: […] (SEQ ID NO: 17); and probe: […] (SEQ ID NO: 18).

LY6D/E48 transcript = assay: LY6D/E48 mRNA induction in cultured cell lines by CPT-11 (real-time PCR); type: cell-based, human; details: for LY6D/E48 transcript: monohydrochloride, trihydrate
Excerpt: Cell lines-Colo205, HCT116, HT29 (ATCC Nos. CCL222, CCL221, CCL247, HTB38, respectively) are human colorectal adenocarcinoma cell lines. 293 is a human immortalized embryonic kidney cell line (ATCC CRL573). PC-3 is a human prostate adenocarcinoma cell line (ATCC CRL1435) and HT1080 is a human fibrosarcoma cell line (ATCC CCL-121). PC-3 stable cell lines were generated by transfection (Effectene, Qiagen) with a CMV-driven vector encoding either an NH2-terminal gD epitope-tagged form of LY6D/E48 or an empty vector and selected in 400 μg/ml G418 (Geneticin, Life Technologies, Inc.). Growth conditions were according to American Type Culture Collection (ATCC, Manassas, Va.) guidelines. For all cell lines, CPT11 treatments were done in 10 cm dishes for the indicated timepoints. Cells were harvested and RNA was prepared using RNeasy kit (Qiagen, Hilden, Germany). TaqMan® real-time quantitative PCR analysis was performed as described below.
as §1

E48/Ly-6D = E48/Ly-6D surface expression on Colo205 cells after CPT-11 (FACS, immunofluorescence); type: cell-based, human
Experimental: For flow cytometry, cells were grown to 90% confluence and removed from plates using 2 mM EDTA in PBS. Cells were washed and resuspended in FACS buffer (PBS with 1% BSA) and incubated for 60 min with anti-LY6D/[…] monoclonal antibody 15A5 or 17H7 or anti-gd antibody (Genentech, Inc.) followed by 60 min with anti-mouse secondary antibody conjugated to PE. Analysis was performed on FACS scan.

[1] = system: Colo205 human colorectal cancer cells; assay: Growth, treatment and resection of Colo205 tumor xenografts in nude mice (mass, H&E); type: in vivo
Excerpt: (§2) Growth and treatment of human tumor xenografts—Female nude mice (Charles River Laboratories, Hollister Calif.) were maintained in accordance with the guide for the Care and Use of Laboratory Animals, Colo205 human colorectal cancer cells were harvested, resuspended in HBSS, and injected s.c. into flanks (5×10^6 cells/flank) of 6-8 week old mice. […] Twenty-four hours following the final dose of CPT-11 or saline, tumors were resected from the animals. […]. Half of each tumor was frozen immediately in liquid nitrogen for subsequent extraction of RNA and the other half was fixed in 10% neutral buffer formalin overnight and then transferred 24 hours later into 70% ethanol for sectioning, microscopic analysis and analysis by in situ hybridization. Tumor xenografts of the DLD-1 colorectal cell line were treated and prepared in essentially the same manner. The masses of the DLD-1 colorectal tumor xenografts at time of resection were 0.24, 0.10 and 0.21 for saline controls and 0.21, 0.1 and 0.12 for CPT-11-treated tumors.

normal colon tissue = assay: Real-time PCR with mouse-specific primers on normal colon of CPT-11 treated mice; type: in vivo; details: normal colon of CPT-11 treated vs control mice; data not shown
Experimental: Real-Time PCR (TaqMan®)'The source of RNA used for RT-PCR analysis was the same as that used for the preparation of probes for oligonucleotide array analysis. Quantitative Reverse Transcriptase-PCR (RT-PCR) was performed using TaqMan® assay reagents from Perkin-Elmer, Applied Biosystems, 50 μl RT-PCR reactions consisted of 5 μl 10× TaqMan Buffer A, 300 μM of each dNTP, 5 mM MgCl2, 10 unites of RNase inhibitor, 12.5 units of MuLV Reverse Transcriptase, 1.25 units of AmpliTaq Gold DNA Polymerase, 200 nM probe, 500 nM primers and 100 ng RNA. Reaction conditions consisted of reverse transcription at 48° C. for 10 minutes, denaturation at 95° C. for 10 minutes, and 40 thermal cycles of 95° C. for 25 seconds, and 65° C. for 1 min. Reaction products were analyzed on 4-agarose gels (Invitrogen). Fold-induction for each gene of interest was determined using the ΔΔCt method and the result is presented relative to both GAPDH and actin in each figure. The following specific probes and primer sets were used for MFGE8 (Acc#U58516): forward primer: […] NO: 1), reverse primer: […] NO: 2), and probe: […] NO: 3); GPC1 (Acc#X54232): forward primer: […] NO: 4), reverse primer: […] NO: 5), and probe: […] […] Real-time PCR with primers specific for corresponding mouse transcripts was performed and with the exceptions of SPRR3 and Aquaporin-3, all of the mouse homologs were readily detected in RNA from mouse colon. […]

[2] = system: Colo205 human tumor xenografts; assay: In vivo efficacy study, Colo205 xenografts in nude mice; details: CPT-11 alone, 80 mg/kg IP day 0, 4 & 8; regrowth at rapid rate after last administration
[3] = system: DLD-1 colorectal tumor xenografts; assay: Growth, treatment and resection of DLD-1 tumor xenografts in nude mice; type: in vivo, human; details: DLD-1 xenografts; CPT-11-treated; at time of resection; monohydrochloride, trihydrate
Excerpt: as §2

CCc1c2c(nc3ccc(OC(=O)N4CCC(N5CCCCC5)CC4)cc13)-c1cc3c(c(=O)n1C2)COC(=O)[C@]3(O)CC [CPT-11, (S)-[1,4′-bipiperidine]-1′-carboxylic acid, 4,11-diethyl-3,4,12,14-tetrahydro-4-hydroxy-3,14-dioxo-1H-pyrano[3′,4′:6,7]indolizino(1,2-b)quinolin-9-yl ester, monohydrochloride, trihydrate]
Galectin-7 mRNA (Colo205 tumors; Colo205 tumors): present and induced
transcripts MFGE8, GPC1, AQP3, CDH17, LY6D, LY6E, identified and confirmed by real-time PCR (Colo205 tumors; three CPT-11 treated Colo205 tumors vs saline controls): significant upregulation in all three CPT-11 treated tumors relative to controls
tumor-induced transcripts in normal mouse intestine (mouse colon; apart from Metallothionein (MT1G)): none of the transcripts that were induced in the tumors by CPT-11 were induced in the normal mouse intestine
cryptidin genes (mouse colon; normal colon, three animals treated with CPT-11): activated in two of the three animals treated with CPT-11
gene activation in colon, Mu74Av2 array (mouse colon; unrelated to most genes induced in the xenografts): activation of a small number of genes in the colon
expression of genes listed in Table I (Colo205 and DLD-1 cells): upregulation of some of the genes listed in Table I was observed
Activation of Keratin23 and E48 (DLD-1 tumors; Colo205 and DLD-1 tumors): occurred in both tumor types
Neuromedin U, Annexin VIII, Transglutaminase, Aquaporin-3 and Maspin (DLD-1 tumors; Colo205 and DLD-1 tumors): all induced by SPT-11 and expressed at comparable levels in the Colo205 and DLD-1 tumors
Galectin-7 mRNA (DLD-1 tumors; DLD-1 tumors): undetectable in both treated or control DLD-1 tumors
Periplekin and Antileukoproteinase induction (DLD-1 tumors; DLD-1 tumors compared with Colo205 tumors): induced by SPT-11 to a degree less than that observed for the Colo205 tumors
genes induced by CPT-11, Colo205 and DLD-1 tumors in parallel (DLD-1 tumors; real-time PCR, FIG. 2): most of the genes were induced by CPT-11 treatment of both tumor types
LY6D/E48 mRNA (LY6D/E48 transcript; colorectal cancer cell line DLD-1): overexpressed LY6D/E48 MRNA in response to CPT-11
LY6D/E48 mRNA (LY6D/E48 transcript; colorectal cancer cell line HCT116): overexpressed LY6D/E48 MRNA in response to CPT-11
LY6D/E48 mRNA (LY6D/E48 transcript; colorectal cancer cell line HT29): overexpressed LY6D/E48 MRNA in response to CPT-11
LY6D/E48 transcript level (LY6D/E48 transcript; cultured Colo205 cells, 10 μM CPT-11, 24 and 48 hours): elevated within 24 hours post-treatment with a further enhancement by 48 hours
LY6D/E48 mRNA (LY6D/E48 transcript; fibrosarcoma cell line HT1080): overexpressed LY6D/E48 MRNA in response to CPT-11
LY6D/E48 transcript (LY6D/E48 transcript; human embryonic kidney cell line 293, 10 μM CPT-11): could not be detected in the absence or presence of CPT-11; also recorded: not detected
LY6D/E48 transcript (LY6D/E48 transcript; human prostate cancer PC3 cell line, 10 μM CPT-11): could not be detected in the absence or presence of CPT-11; also recorded: not detected
anti-LY6D/E48 signal intensity by fluorescence activated cell sorting (E48/Ly-6D; Colo205 cells, increasing concentrations of CPT-11 in vitro, 2 days): increased in a dose dependent manner
signal intensity and percentage of reactive cells by immunofluorescent microscopy (E48/Ly-6D; intact Colo205 cells, increasing CPT-11): increased with drug dosage
average tumor mass, drug treated vs control group ([1]; 24 hours after third injection): did not differ significantly
average mass of the tumors ([1]; 24 hours after third injection, control and drug treated groups): approximately 300 mg
mass of resected tumor (individual tumors) ([1]; CPT-11 80 mg/kg IP three times at 4 day intervals, 24 hours after final dose, monohydrochloride, trihydrate, 80 mg/kg): 0.23 grams and 0.18 grams and 0.50 grams
expression of mouse homologs of tumor-induced genes (normal colon tissue): no difference in expression of these genes was detected
tumor growth [2]: transiently reduced the rate of tumor growth
mass of resected tumor (individual tumors) [3]: 0.21 and 0.1 and 0.12
